Experimental data taken from patent US7026281B1, “Antagonistic analogs of GH-RH inhibiting IGF-I and -II” (The Administrators of the Tulane Educational Fund, priority 1998, dated 2006).
Square brackets hold non-standard residues; d marks the D form. Peptide text beside a SMILES is read from it. * marks the point of attachment. Acetyl(1-naphthyl) = O=C(Cc1cccc2ccccc12)*; Phe(4-Cl) = N[C@@H](Cc1ccc(Cl)cc1)C(=O)O; hArg = N=C(N)NCCCC[C@H](N)C(=O)O; Nle = CCCC[C@H](N)C(=O)O; Abu = CC[C@H](N)C(=O)O; PhAc = O=C(Cc1ccccc1)*

How the values were obtained:
[1] = system: hGH-RH(1–29)NH2 induced GH release; assay: Inhibition of GH release in superfused rat pituitary system; format: cell-based; conditions: antagonist 30 nM; for Inhibition of GH release (%) 30 min: 1 nM hGH-RH(1–29)NH2 30 min later; for Inhibition of GH release (%) 60 min: 1 nM hGH-RH(1–29)NH2 60 min later; for Inhibition of GH release (%) 90 min: 1 nM hGH-RH(1–29)NH2 90 min later; for Inhibition of GH release (%) 120 min: 1 nM hGH-RH(1–29)NH2 120 min later; for Inhibition of GH release (%) 0 min: 1 nM hGH-RH(1–29)NH2 at 0 min
Experimental: Superfused Rat Pituitary System.
The analogs were tested in vitro in a test described earlier (S. Vigh and A. V. Schally, Peptides 5:241–347, 1984) with modification (Z. Rekasi and A. V. Schally, P.N.A.S. 90:2146–2149, 1993).
Briefly, the cells are preincubated with peptides for 9 minutes (3 mL) at various concentrations. Immediately after the incubation, 1 nM hGH-RH(1–29)NH2 is administered for 3 minutes (1 mL) [0 minute response]. To check the duration of the antagonistic effect of the analogue, 1 nM hGH-RH(1–29)NH2 is applied 30, 60, 90, and 120 minutes later for 3 minutes [30, 60, 90, 120 min responses]. Net integral values of the GH responses are evaluated. GH responses are compared to and expressed as percent of the original GH response induced by 1 nM GH-RH(1–29)NH2. The effect of the new antagonists are compared to that of [Ac-Tyr^1,D-Arg^2]hGH-RH(1–29)NH2, the “Standard antagonist”.
Growth Hormone Radio-immunoassay.
Rat GH levels in aliquots of undiluted and diluted superfusion samples were measured by double-antibody radioimmunoassay using materials supplied by the National Hormone and Pituitary Program, Baltimore, Md. The results of RIA were analyzed with a computer program developed in our institute (V. Csernus and A. V. Schally, in Neuroendocrine Research Methods, Harwood Academic (Greenstein, B. D. ed., London, pp. 71–109, 1991), hereby incorporated by reference. Inter-assay variation was less than 15% and intra-assay variation was less than 10%.

[2] = target: T1, rat pituitary GH-RH receptors (Rattus norvegicus, UniProt Q02644); assay: GH-RH radioreceptor binding assay, rat anterior pituitary membrane homogenates; conditions: for Ki: competition with [His1,125I-Tyr10,Nle27]hGH-RH(1–32)NH2; for R.A. (relative affinity compared to Standard antagonist): ratio of Ki values
T1 construct: from tissue; host or cells: anterior pituitary of male Sprague-Dawley rats, crude membrane homogenates
T1 sequence (Q02644 23-464): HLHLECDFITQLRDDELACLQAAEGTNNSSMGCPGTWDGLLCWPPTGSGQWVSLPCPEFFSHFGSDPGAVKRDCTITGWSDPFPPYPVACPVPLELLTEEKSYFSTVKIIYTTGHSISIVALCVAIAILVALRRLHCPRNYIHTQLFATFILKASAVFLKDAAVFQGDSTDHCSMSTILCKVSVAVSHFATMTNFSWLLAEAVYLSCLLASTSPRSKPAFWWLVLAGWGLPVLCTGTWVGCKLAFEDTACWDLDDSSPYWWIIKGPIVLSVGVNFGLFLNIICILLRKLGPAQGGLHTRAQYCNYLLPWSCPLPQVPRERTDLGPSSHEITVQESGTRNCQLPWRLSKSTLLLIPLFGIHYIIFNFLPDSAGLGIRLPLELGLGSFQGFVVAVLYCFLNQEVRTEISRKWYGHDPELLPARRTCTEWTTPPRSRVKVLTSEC
Experimental: GH-RH Binding Assay. A sensitive radioreceptor binding assay was developed to determine the binding characteristics of the antagonists of GH-RH (G. Halmos, A. V. Schally et al., Receptor 3, 87–97, 1993), hereby incorporated by reference. The assay is based on binding of labelled [His^1,Nle^27]hGH-RH(1–32)NH2 to rat anterior pituitary membrane homogenates. Iodinated derivatives of [His^1,Nle^27]hGH-RH(1–32)NH2 are prepared by the chloramine-T method (F. C. Greenwood et al., Biochemistry 89:114–123, 1963), hereby incorporated by reference. Pituitaries from male Sprague-Dawley rats (250–300 g) are used to prepare crude membranes. For saturation binding analyses, membrane homogenates are incubated with at least 6 concentrations of [His^1,^125I-Tyr^10,Nle^27]hGH-RH(1–32) NH2, ranging from 0.005 to 0.35 nM in the presence or absence of excess unlabelled peptide (1 μM).
The pellet is counted for radioactivity in a γ-counter. The affinities of the antagonist peptides tested to rat pituitary GH-RH receptors are determined in competitive binding experiments. The final binding affinities are estimated by Ki (dissociation constant of the inhibitor-receptor complex) and are determined by the Ligand PC and McPherson computer programs of Munson and Rodbard (P. J. Munson and D. Rodbard, Anal. Biochem. 107. 220–239, 1980). Relative affinities compared to [Ac-Tyr^1,D-Arg^2]hGH-RH(1–29)NH2, the Standard antagonist, are calculated as the […].

[3] = system: GH release stimulated by hGH-RH(1–29)NH2; assay: In vivo inhibition of serum GH response in rats; set-up: species or system rat
Experimental: GH-RH antagonistic effect of the analogs was tested on young male Sprague-Dawley rats (200–250 g). In each experiment, 5 groups of 7 animals each were used. The compounds (80 μg/kg) and GH-RH(1–29)NH2 (3 μg/kg) were dissolved in 5.5% mannitol and given intravenously to the jugular vein of the rats under Nembutal anesthesia. The time elapsed between the administrations of the antagonist and GH-RH varied between groups, according to the following schedule. The first group of animals received GH-RH injection 5 min after the administration of the antagonist; for the second, third and fourth group of animals, the time interval elapsed between the injection of the antagonist and that of GH-RH was 15, 30, and 60 min, respectively. The control group was first injected with the solvent alone instead of the antagonist, followed by a GH-RH injection 5 min later.
0.4 mL blood samples were taken for GH RIA before the administration of the antagonist (“blood0”), and 5 min after the injection of GH-RH (“blood1”). The GH response in each group was calculated as rGH=(GHblood1/GHblood0), mean±S.E.M. of the individual differences. Relative inhibition of GH response (%) in each group treated was calculated as […].

| Compound | Inhibition of GH release (%) 30 min [1] [%] | Inhibition of GH release (%) 60 min [1] [%] | Inhibition of GH release (%) 90 min [1] [%] | Inhibition of GH release (%) 120 min [1] [%] | Inhibition of GH release (%) 0 min [1] [%] | Ki [2] [nM] | R.A. (relative affinity compared to Standard antagonist) [2] | Inhibition of the GH release stimulated by hGH-RH(1–29)NH2 (in words) ([3]; 80 μg/kg i.v., rats) | Relative inhibition % of GH response ([3]; antagonist 80 μg/kg i.v. 5 min before GH-RH) [%] | Relative inhibition % of GH response ([3]; antagonist 80 μg/kg i.v. 15 min before GH-RH) [%] | GH response mean ± S.E.M. ([3]; antagonist 80 μg/kg i.v. 15 min before GH-RH 3 μg/kg) | Relative inhibition % of GH response ([3]; antagonist 80 μg/kg i.v. 30 min before GH-RH) [%] | GH response mean ± S.E.M. ([3]; antagonist 80 μg/kg i.v. 30 min before GH-RH 3 μg/kg) | Relative inhibition % of GH response ([3]; antagonist 80 μg/kg i.v. 60 min before GH-RH) [%] | GH response mean ± S.E.M. ([3]; antagonist 80 μg/kg i.v. 60 min before GH-RH 3 μg/kg) | GH response mean ± S.E.M. ([3]; rGH=GHblood1/GHblood0, antagonist 80 μg/kg i.v. 5 min before GH-RH 3 μg/kg) |
| --- | --- | --- | --- | --- | --- | --- | --- | --- | --- | --- | --- | --- | --- | --- | --- | --- |
| CCCC[C@H](NC(=O)[C@@H](NC(=O)[C@H](CC(=O)O)NC(=O)[C@H](CCC(N)=O)NC(=O)[C@H](CC(C)C)NC(=O)[C@H](CC(C)C)NC(=O)[C@H](CCCCN)NC(=O)[C@H](CCCNC(=N)N)NC(=O)[C@H](C)NC(=O)[C@H](CO)NC(=O)[C@H](CC(C)C)NC(=O)[C@H](CCC(N)=O)NC(=O)[C@H](CC)NC(=O)[C@H](CC(C)C)NC(=O)[C@@H](NC(=O)[C@H](CCCCN)NC(=O)[C@H](CCCNC(=N)N)NC(=O)[C@H](Cc1ccc(O)cc1)NC(=O)[C@H](CCCNC(=N)N)NC(=O)[C@H](CC(N)=O)NC(=O)[C@@H](NC(=O)[C@H](Cc1ccc(Cl)cc1)NC(=O)[C@@H](NC(=O)[C@H](C)NC(=O)[C@H](CC(=O)O)NC(=O)[C@@H](CCCNC(=N)N)NC(=O)[C@H](Cc1ccc(O)cc1)NC(=O)Cc1cccc2ccccc12)[C@@H](C)CC)[C@@H](C)O)C(C)C)[C@@H](C)CC)C(=O)N[C@H](CCCNC(=N)N)C(=O)N[C@@H](CCCCNC(=N)N)C(N)=O [Peptide 5, [Nac^0, D-Arg^2, Phe(pCl)^6, Arg^9, Abu^15, Nle^27, D-Arg^28, Har^29]hGH-RH(1–29)NH2] ({Acetyl(1-naphthyl)}-Y[dR]DAI[Phe(4-Cl)]TNRYRKVL[Abu]QLSARKLLQDI[Nle][dR][hArg]-NH2) | 77 | 59 | 58 | 50 | 79 | 0.036 | 82 | – | – | – | – | – | – | – | – | – |
| CCCC[C@H](NC(=O)[C@@H](NC(=O)[C@H](CC(=O)O)NC(=O)[C@H](CCC(N)=O)NC(=O)[C@H](CC(C)C)NC(=O)[C@H](CC(C)C)NC(=O)[C@H](CCCCN)NC(=O)[C@H](CCCNC(=N)N)NC(=O)[C@H](C)NC(=O)[C@H](CO)NC(=O)[C@H](CC(C)C)NC(=O)[C@H](CCCNC(=N)N)NC(=O)[C@H](CC)NC(=O)[C@H](CC(C)C)NC(=O)[C@@H](NC(=O)[C@H](CCCCN)NC(=O)[C@H](CCCNC(=N)N)NC(=O)[C@H](Cc1ccc(O)cc1)NC(=O)[C@H](CO)NC(=O)[C@H](CC(N)=O)NC(=O)[C@@H](NC(=O)[C@H](Cc1ccc(Cl)cc1)NC(=O)[C@@H](NC(=O)[C@H](C)NC(=O)[C@H](CC(=O)O)NC(=O)[C@@H](CCCNC(=N)N)NC(=O)[C@H](Cc1ccc(O)cc1)NC(=O)Cc1ccccc1)[C@@H](C)CC)[C@@H](C)O)C(C)C)[C@@H](C)CC)C(=O)N[C@@H](CO)C(=O)N[C@H](CCCNC(=N)N)C(N)=O [Peptide 10, [PhAc^0, D-Arg^2, Phe(pCl)^6, Abu^15, Arg^16, Nle^27, D-Arg^29]hGH-RH(1–29)NH2] (PhAc-Y[dR]DAI[Phe(4-Cl)]TNSYRKVL[Abu]RLSARKLLQDI[Nle]S[dR]-NH2) | 69 | 46 | 24 | 22 | 75 | 0.107 | 27 | – | – | – | – | – | – | – | – | – |
| [Nac^0, His^1, D-Arg^2, Phe(pCl)^6, Arg^9, Abu^15, Nle^27, D-Arg^28, Har^29]hGH-RH(1–29)NH2 [Peptide 8] | 100 | 98 | 97 | 90 | 100 | – | – | strong and long-lasting inhibition | 74 | 46 | 3.6 ± 0.4 | 8 | 5.5 ± 0.6 | 1 | 5.8 ± 0.7 | 2.3 ± 0.3 |
| [PhAc^0, D-Arg^2, Phe(pCl)^6, Arg^9, Tyr(Me)^10, Abu^15, Nle^27, D-Arg^28, Har^29]hGH-RH(1–29)NH2 [Peptide 6] | 93 | 97 | 95 | 90 | 93 | – | – | – | – | – | – | – | – | – | – | – |
| [PhAc^0, D-Arg^2, Phe(pCl)^6, Tyr(Me)^10, Abu^15, D-Arg^27, Arg^28, D-Arg^29]hGH-RH(1–29)NH2 [Peptide 19] | 47 | 59 | 23 | 39 | 58 | – | – | – | – | – | – | – | – | – | – | – |
| [PhAc^0, His^1, D-Arg^2, Phe(pCl)^6, Arg^9, Abu^15, Nle^27, D-Arg^28, Har^29]hGH-RH(1–29)NH2 [Peptide 7] | 92 | 82 | 77 | 65 | 97 | – | – | – | – | – | – | – | – | – | – | – |
